Assay results reported in ChEMBL document CHEMBL1201862, “PubChem BioAssay data set” (2004).
Several values for one entry are separate records, joined by “and”; a condition that tells them apart may be missing. Equal entries are not always repeated.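 Each compound was tested at five concentrations against cells in 96-well plates for 48 hours. GI50: concentration for 50% inhibition of growth.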 Activity calls are given as the source filed them. Cut-off read from the data, not from the text of the source: active = GI50 up to about 1.1 µM and inactive = higher.

Columns and labels:
Assay in all cases: NCI anticancer screen, dose series, 48 h
786-0 = tested on: 786-0
EKVX = tested on: EKVX
Hs-578T = tested on: Hs-578T
IGROV-1 = tested on: IGROV-1
KM12 = tested on: KM12
M14 = tested on: M14
NCI-H460 = tested on: NCI-H460
NCI-H522 = tested on: NCI-H522
NCI/ADR-RES = tested on: NCI/ADR-RES
PC-3 = tested on: PC-3
SF-268 = tested on: SF-268
SF-295 = tested on: SF-295
SK-MEL-28 = tested on: SK-MEL-28
SK-MEL-2 = tested on: SK-MEL-2
SN12C = tested on: SN12C
SNB-19 = tested on: SNB-19
TK-10 = tested on: TK-10
UACC-257 = tested on: UACC-257
UACC-62 = tested on: UACC-62
NCI-H226 = tested on: NCI-H226

Measured: GI50

O=C(O)c1nnsc1COCc1ccccc1
inactive: 786-0 > 100 µM | EKVX > 100 µM | Hs-578T > 100 µM | IGROV-1 > 100 µM | KM12 > 100 µM | M14 > 100 µM | NCI-H460 > 100 µM | NCI-H522 > 100 µM | NCI/ADR-RES > 100 µM | PC-3 > 100 µM | SF-268 > 100 µM | SF-295 > 100 µM | SK-MEL-28 > 100 µM | SK-MEL-2 > 100 µM | SN12C > 100 µM | SNB-19 > 100 µM | TK-10 > 100 µM | UACC-257 > 100 µM | UACC-62 > 100 µM

CCC(C)C1=C(O)[N+]2([O-])Oc3ccc(-c4c(O)c(O)c(-c5ccc(OC(C)=O)cc5)c(OC(C)=O)c4OC(C)=O)cc3OC2(C(C)CC)C(=O)N1O (stereo not given)
inactive: 786-0 > 50 µM | EKVX > 50 µM | Hs-578T > 50 µM | IGROV-1 25.6 µM and 17.1 µM | KM12 > 50 µM | M14 > 50 µM | NCI-H460 > 50 µM | NCI-H522 14.4 µM and 16.1 µM | NCI/ADR-RES > 50 µM | PC-3 > 50 µM | SF-268 41.2 µM | SF-295 > 50 µM | SK-MEL-28 46.1 µM | SK-MEL-2 > 50 µM | SN12C 42.9 µM | SNB-19 > 50 µM | TK-10 > 50 µM | UACC-257 > 50 µM | UACC-62 > 50 µM and 31.3 µM

Cc1cc2c(C)cc(=O)[nH]c2cc1N
inactive: 786-0 > 100 µM | EKVX 67.6 µM | IGROV-1 > 100 µM | KM12 > 100 µM | M14 > 100 µM | NCI-H226 > 100 µM | NCI-H460 65.5 µM | NCI/ADR-RES > 100 µM | PC-3 34.8 µM | SF-295 > 100 µM | SK-MEL-28 > 100 µM | SN12C > 100 µM | SNB-19 > 100 µM | UACC-257 > 100 µM | UACC-62 35.4 µM

CC1(C)N[PH]2(Nc3ccccc3O2)OC1=O
inactive: 786-0 > 100 µM | EKVX 84.3 µM | Hs-578T > 100 µM | IGROV-1 > 100 µM | KM12 > 100 µM | M14 38.5 µM | NCI-H226 35.9 µM | NCI-H460 45.4 µM | NCI/ADR-RES 49.9 µM | PC-3 41.1 µM | SF-268 > 100 µM | SF-295 24.7 µM | SK-MEL-28 86.9 µM | SN12C > 100 µM | SNB-19 > 100 µM | TK-10 68.2 µM | UACC-257 > 100 µM | UACC-62 18.6 µM

C=C(C)C#CC(O)(C(=O)OC1CCN(C)CC1)C(C)C (stereo not given)
inactive: 786-0 > 100 µM | EKVX > 100 µM | IGROV-1 > 100 µM | KM12 > 100 µM | M14 > 100 µM | NCI-H226 > 100 µM | NCI-H522 > 100 µM | NCI/ADR-RES 29.4 µM | PC-3 > 100 µM | SF-268 > 100 µM | SF-295 > 100 µM | SK-MEL-28 > 100 µM | SN12C > 100 µM | SNB-19 > 100 µM | TK-10 > 100 µM | UACC-257 > 100 µM | UACC-62 > 100 µM

Cc1cccc(C(C)C)c1NC(=O)C(=O)CC(=O)c1sc(Nc2ccccc2Cl)nc1C
inactive: 786-0 32.8 µM | EKVX 52.2 µM | Hs-578T 21.9 µM | IGROV-1 46.3 µM | KM12 23.1 µM | M14 19.5 µM | NCI-H460 22.1 µM | NCI-H522 40.5 µM | PC-3 22.4 µM | SF-268 58.2 µM | SF-295 12.9 µM | SK-MEL-28 > 100 µM | SK-MEL-2 12.8 µM | SN12C 64.9 µM | SNB-19 56.4 µM | TK-10 90.2 µM | UACC-257 54.5 µM | UACC-62 42.4 µM

COC(=O)c1ccc(Oc2nc3ccccc3nc2-c2cccs2)cc1
inactive: 786-0 34.4 µM | EKVX > 100 µM | Hs-578T 19.5 µM | IGROV-1 39.3 µM | KM12 > 100 µM | M14 89.5 µM | NCI-H460 33.7 µM | NCI-H522 76 µM | NCI/ADR-RES 64.1 µM | PC-3 44.9 µM | SF-268 21.3 µM | SF-295 18.7 µM | SK-MEL-28 > 100 µM | SK-MEL-2 > 100 µM | SN12C > 100 µM | SNB-19 27.5 µM | TK-10 26.7 µM | UACC-257 > 100 µM | UACC-62 40.6 µM

CN(C)CCN(C)CCC(=O)/C=C/c1ccccc1
inactive: 786-0 15.6 µM | EKVX 32.1 µM | IGROV-1 > 47.9 µM | KM12 20.5 µM | M14 20.9 µM | NCI-H226 > 48.1 µM | NCI-H460 > 100 µM | NCI-H522 4.02 µM | SF-268 30.5 µM | SF-295 > 40.4 µM | SK-MEL-28 20.1 µM | SK-MEL-2 39.2 µM | SN12C 19 µM | SNB-19 > 93.3 µM | TK-10 25.9 µM | UACC-257 22.2 µM | UACC-62 25.4 µM

CCN(C(=O)N[C@@H](CC(C)C)C(=O)NCC(=O)OC)c1ccccc1
inactive: 786-0 > 100 µM | EKVX > 100 µM | IGROV-1 > 100 µM | KM12 > 100 µM | M14 > 100 µM | NCI-H226 > 100 µM | NCI-H460 85.7 µM | NCI-H522 > 100 µM | NCI/ADR-RES > 100 µM | PC-3 > 100 µM | SF-295 > 100 µM | SK-MEL-28 38.3 µM | SK-MEL-2 61.4 µM | SN12C > 100 µM | SNB-19 > 100 µM | TK-10 > 100 µM | UACC-257 25.9 µM | UACC-62 30.8 µM

N#CCCN(C1=NN(C(=O)CC(=O)Nc2ccc(Cl)cc2)C(c2ccccc2)C1)c1ccc(Cl)cc1 (stereo not given)
inactive: 786-0 > 100 µM | EKVX > 100 µM | IGROV-1 > 100 µM | KM12 > 100 µM | M14 > 100 µM | NCI-H226 > 100 µM | NCI-H460 > 100 µM | NCI-H522 > 100 µM | SF-268 > 100 µM | SF-295 > 100 µM | SK-MEL-28 > 100 µM | SK-MEL-2 > 100 µM | SN12C > 100 µM | SNB-19 > 100 µM | TK-10 > 100 µM | UACC-257 > 100 µM | UACC-62 > 100 µM

O=S(=O)(O)c1c(Cl)cc(O)c2ncccc12
inactive: 786-0 > 100 µM | EKVX > 100 µM | IGROV-1 > 100 µM | KM12 > 100 µM | M14 > 100 µM | NCI-H226 > 100 µM | NCI-H460 > 100 µM | NCI/ADR-RES > 100 µM | PC-3 > 100 µM | SF-295 > 100 µM | SK-MEL-28 > 100 µM | SK-MEL-2 > 100 µM | SN12C > 100 µM | SNB-19 > 100 µM | UACC-257 > 100 µM | UACC-62 > 100 µM

COC(=O)CC(C#N)(OP1(=O)OC(c2ccccc2)C(C)N1C)c1ccccc1 (stereo not given)
inactive: 786-0 24 µM | EKVX 21.7 µM | Hs-578T 30.3 µM | IGROV-1 34.4 µM | KM12 20.6 µM | M14 31.3 µM | NCI-H460 20.4 µM | NCI-H522 59 µM | NCI/ADR-RES 40.1 µM | PC-3 37 µM | SF-268 30.3 µM | SF-295 42 µM | SK-MEL-28 31.1 µM | SK-MEL-2 27.2 µM | SN12C 29.6 µM | SNB-19 39.3 µM | TK-10 29 µM | UACC-257 20.6 µM | UACC-62 19.8 µM

CN(C)c1ccc(/C=C/c2ccc(/C=C/c3ccc(N(C)C)cc3)cc2)cc1
inactive: 786-0 > 100 µM | EKVX > 100 µM | IGROV-1 > 100 µM | KM12 > 100 µM | M14 > 100 µM | NCI-H226 81.8 µM | NCI-H460 > 100 µM | NCI-H522 > 100 µM | SF-268 > 100 µM | SF-295 89.1 µM | SK-MEL-28 > 100 µM | SK-MEL-2 > 100 µM | SN12C > 100 µM | SNB-19 78.5 µM | TK-10 > 100 µM | UACC-257 90.4 µM | UACC-62 87.3 µM

CN(C)c1ccc(/C=C2\CCCCCC2=O)cc1
inactive: 786-0 87.1 µM | EKVX > 100 µM | IGROV-1 > 100 µM | KM12 > 100 µM | M14 79.1 µM | NCI-H460 31.6 µM | NCI/ADR-RES > 100 µM | PC-3 65 µM | SF-268 > 100 µM | SF-295 > 100 µM | SK-MEL-28 > 100 µM | SK-MEL-2 > 100 µM | SN12C > 100 µM | SNB-19 > 100 µM | TK-10 > 100 µM | UACC-257 74.3 µM | UACC-62 90.4 µM

COC(=O)NCCc1n[nH]c2c1C(=O)C=C(Nc1ccccc1OC)C2=O
inactive: 786-0 38 µM | EKVX 32.8 µM | Hs-578T 28.4 µM | IGROV-1 26.5 µM | KM12 24.8 µM | M14 16.2 µM | NCI-H460 28.2 µM | NCI-H522 24.1 µM | NCI/ADR-RES 21.1 µM | PC-3 31.6 µM | SF-268 45.7 µM | SF-295 44.5 µM | SK-MEL-28 38.4 µM | SK-MEL-2 22.2 µM | SN12C 40.3 µM | SNB-19 > 100 µM | TK-10 53.7 µM | UACC-257 17 µM | UACC-62 18.7 µM
